Measurements published in article PMC3433420 (PLoS ONE, 2012).
Residues, ends and D or L forms follow the SMILES beside them.

Assays:
Experiment in all cases: In-house protein microarrays (with or without 5 mM DTT), protein named per line
Type in all cases: binding
SH2 and PTB domains [1] = biological target: T1, SH2 and PTB domains (Homo sapiens, UniProt P29350)
T1 construct: thioredoxin; made in house; host or cells: BL21(DE3)pLysS E. coli
Summary of the method: (§1)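 KD values come from rhodamine fluorescence of duplicate spots after subtraction of a thioredoxin control. Domains were printed at ~40 µM on aldehyde slides, blocked 1 h at room temperature in pH 7.8 HEPES/KCl buffer with 5 mM DTT and 1% BSA, then peptide-probed.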

SH2 and PTB domains [2] = biological target: T2, SH2 and PTB domains (Homo sapiens, UniProt P20936)
T2 construct: thioredoxin; made in house; host or cells: BL21(DE3)pLysS E. coli
T2 sequence (P20936 1-1047): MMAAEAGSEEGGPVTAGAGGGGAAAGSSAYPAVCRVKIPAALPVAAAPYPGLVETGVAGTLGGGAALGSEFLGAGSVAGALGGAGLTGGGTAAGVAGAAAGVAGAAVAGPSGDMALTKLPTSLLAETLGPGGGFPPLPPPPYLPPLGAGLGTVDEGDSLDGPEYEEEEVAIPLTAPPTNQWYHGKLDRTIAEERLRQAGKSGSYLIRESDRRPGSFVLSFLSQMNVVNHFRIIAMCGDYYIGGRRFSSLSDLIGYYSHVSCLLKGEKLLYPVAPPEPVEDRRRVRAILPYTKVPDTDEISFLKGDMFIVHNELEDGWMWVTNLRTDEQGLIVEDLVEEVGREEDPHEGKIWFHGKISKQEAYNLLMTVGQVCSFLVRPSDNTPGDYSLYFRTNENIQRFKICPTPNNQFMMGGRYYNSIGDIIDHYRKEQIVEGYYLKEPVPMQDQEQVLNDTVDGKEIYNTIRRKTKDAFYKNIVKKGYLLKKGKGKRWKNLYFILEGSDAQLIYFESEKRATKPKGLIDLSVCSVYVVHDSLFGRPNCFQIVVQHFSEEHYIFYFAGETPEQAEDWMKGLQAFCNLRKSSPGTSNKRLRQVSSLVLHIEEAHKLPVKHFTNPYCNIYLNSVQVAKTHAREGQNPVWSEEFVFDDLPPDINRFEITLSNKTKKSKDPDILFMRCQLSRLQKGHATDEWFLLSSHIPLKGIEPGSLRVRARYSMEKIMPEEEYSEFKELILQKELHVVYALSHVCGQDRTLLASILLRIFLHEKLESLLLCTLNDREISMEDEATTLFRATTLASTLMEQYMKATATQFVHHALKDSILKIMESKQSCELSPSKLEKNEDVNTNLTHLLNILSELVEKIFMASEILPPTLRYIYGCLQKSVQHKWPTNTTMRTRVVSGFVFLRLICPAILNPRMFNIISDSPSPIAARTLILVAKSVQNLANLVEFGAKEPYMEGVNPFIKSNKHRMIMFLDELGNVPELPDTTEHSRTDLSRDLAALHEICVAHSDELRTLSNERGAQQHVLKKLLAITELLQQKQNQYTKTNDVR
Summary of the method: as §1

SH2 and PTB domains [3] = biological target: T3, SH2 and PTB domains (Homo sapiens, UniProt P27986)
T3 construct: thioredoxin; made in house; host or cells: BL21(DE3)pLysS E. coli
T3 sequence (P27986 whole entry, the tested form may be a part): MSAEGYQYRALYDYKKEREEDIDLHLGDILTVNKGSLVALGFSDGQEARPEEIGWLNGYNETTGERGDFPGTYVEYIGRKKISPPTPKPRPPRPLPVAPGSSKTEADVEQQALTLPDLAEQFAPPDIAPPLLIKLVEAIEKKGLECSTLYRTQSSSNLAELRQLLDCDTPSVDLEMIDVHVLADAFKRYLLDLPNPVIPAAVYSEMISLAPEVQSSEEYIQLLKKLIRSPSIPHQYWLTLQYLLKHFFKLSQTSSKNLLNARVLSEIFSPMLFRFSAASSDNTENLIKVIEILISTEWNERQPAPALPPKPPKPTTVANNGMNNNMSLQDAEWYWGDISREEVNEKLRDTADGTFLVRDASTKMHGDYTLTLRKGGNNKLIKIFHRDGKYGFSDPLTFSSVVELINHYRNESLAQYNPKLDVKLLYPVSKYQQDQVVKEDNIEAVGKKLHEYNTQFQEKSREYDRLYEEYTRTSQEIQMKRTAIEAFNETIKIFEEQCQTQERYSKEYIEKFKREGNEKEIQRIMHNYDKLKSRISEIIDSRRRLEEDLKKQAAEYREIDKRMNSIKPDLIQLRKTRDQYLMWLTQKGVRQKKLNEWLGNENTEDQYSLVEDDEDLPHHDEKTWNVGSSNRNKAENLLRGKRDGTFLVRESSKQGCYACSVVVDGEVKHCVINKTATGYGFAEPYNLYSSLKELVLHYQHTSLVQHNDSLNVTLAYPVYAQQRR
Summary of the method: as §1

SH2 and PTB domains [4] = biological target: T4, SH2 and PTB domains (Homo sapiens, UniProt P52735); details: protein VAV2
T4 construct: thioredoxin; made in house; host or cells: BL21(DE3)pLysS E. coli
T4 sequence (P52735 1-878): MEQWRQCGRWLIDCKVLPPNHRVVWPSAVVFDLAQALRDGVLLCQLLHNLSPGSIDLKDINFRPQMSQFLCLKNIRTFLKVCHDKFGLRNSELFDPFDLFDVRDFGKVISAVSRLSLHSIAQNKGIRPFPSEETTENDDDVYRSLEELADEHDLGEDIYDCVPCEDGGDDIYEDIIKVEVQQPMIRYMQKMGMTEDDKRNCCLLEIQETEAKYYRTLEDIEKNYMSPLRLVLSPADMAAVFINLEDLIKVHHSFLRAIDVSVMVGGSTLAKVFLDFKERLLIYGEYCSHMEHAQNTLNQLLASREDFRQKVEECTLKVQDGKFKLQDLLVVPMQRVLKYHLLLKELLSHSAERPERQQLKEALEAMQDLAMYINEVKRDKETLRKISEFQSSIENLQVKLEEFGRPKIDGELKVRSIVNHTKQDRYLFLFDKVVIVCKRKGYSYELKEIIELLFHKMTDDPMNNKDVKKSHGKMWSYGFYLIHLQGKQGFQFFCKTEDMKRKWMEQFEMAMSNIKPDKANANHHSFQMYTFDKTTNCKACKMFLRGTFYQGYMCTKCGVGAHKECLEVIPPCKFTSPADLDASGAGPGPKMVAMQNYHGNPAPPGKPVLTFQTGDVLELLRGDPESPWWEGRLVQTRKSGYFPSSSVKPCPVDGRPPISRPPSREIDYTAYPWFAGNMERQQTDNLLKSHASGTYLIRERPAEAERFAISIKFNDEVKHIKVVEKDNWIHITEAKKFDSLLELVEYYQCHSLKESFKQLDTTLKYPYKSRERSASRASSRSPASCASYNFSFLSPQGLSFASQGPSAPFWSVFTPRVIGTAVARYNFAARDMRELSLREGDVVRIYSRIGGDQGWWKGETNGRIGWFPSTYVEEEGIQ
Summary of the method: as §1

[5] = protein RASA1-NC, PM assay replicate # 39337, array fabrication # 39329

T1 sequence (P29350 whole entry, the tested form may be a part): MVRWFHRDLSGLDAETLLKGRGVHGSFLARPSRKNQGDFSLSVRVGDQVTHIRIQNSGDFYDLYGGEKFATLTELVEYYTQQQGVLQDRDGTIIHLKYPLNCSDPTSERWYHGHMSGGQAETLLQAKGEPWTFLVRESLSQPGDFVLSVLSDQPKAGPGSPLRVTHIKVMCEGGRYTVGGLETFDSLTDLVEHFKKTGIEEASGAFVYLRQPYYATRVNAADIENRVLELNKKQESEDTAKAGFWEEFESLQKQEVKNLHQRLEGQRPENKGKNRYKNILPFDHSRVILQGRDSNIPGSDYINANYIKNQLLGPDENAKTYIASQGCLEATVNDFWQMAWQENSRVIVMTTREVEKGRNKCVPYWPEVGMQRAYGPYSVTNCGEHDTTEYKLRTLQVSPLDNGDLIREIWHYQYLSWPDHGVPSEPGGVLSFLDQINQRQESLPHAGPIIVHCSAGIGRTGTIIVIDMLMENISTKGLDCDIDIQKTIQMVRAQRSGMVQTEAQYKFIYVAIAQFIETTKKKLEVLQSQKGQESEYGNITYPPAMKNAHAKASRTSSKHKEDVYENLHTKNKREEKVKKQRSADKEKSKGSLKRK

| Compound | Kd (SH2 and PTB domains [1]; protein PTPN6-NC, PM assay replicate # 39336, array fabrication # 39329) | Kd (SH2 and PTB domains [1]; protein PTPN6-NC, PM assay replicate # 39337, array fabrication # 39329) | Kd (SH2 and PTB domains [2]; protein RASA1-C, PM assay replicate # 39337, array fabrication # 39329) | Kd (SH2 and PTB domains [2]; protein RASA1-N, PM assay replicate # 39336, array fabrication # 39329) | Kd (SH2 and PTB domains [2]; protein RASA1-N, PM assay replicate # 39337, array fabrication # 39329) | Kd (SH2 and PTB domains [2]; protein RASA1-NC, PM assay replicate # 39336, array fabrication # 39329) | Kd (SH2 and PTB domains [2]; [5]) | Kd (SH2 and PTB domains [2]; protein RASA1-NC, PM assay replicate # 39603, array fabrication # 39392) | Kd (SH2 and PTB domains [3]; protein PIK3R1-N, PM assay replicate # 39336, array fabrication # 39329) | Kd (SH2 and PTB domains [3]; protein PIK3R1-N, PM assay replicate # 39337, array fabrication # 39329) | Kd (SH2 and PTB domains [4]; PM assay replicate # 39336, array fabrication # 39329) | Kd (SH2 and PTB domains [4]; PM assay replicate # 39337, array fabrication # 39329) | Kd (SH2 and PTB domains [2]; protein RASA1-N, PM assay replicate # 39307, array fabrication # 39286) | Kd (SH2 and PTB domains [3]; protein PIK3R1-NC, PM assay replicate # 39307, array fabrication # 39286) | Kd (SH2 and PTB domains [3]; protein PIK3R1-NC, PM assay replicate # 39337, array fabrication # 39329) | Kd (SH2 and PTB domains [4]; PM assay replicate # 39307, array fabrication # 39286) | Kd (SH2 and PTB domains [1]; protein PTPN6-C, PM assay replicate # 39307, array fabrication # 39286) |
| --- | --- | --- | --- | --- | --- | --- | --- | --- | --- | --- | --- | --- | --- | --- | --- | --- | --- |
| CC(C)C[C@H](NC(=O)[C@@H]1CCCN1C(=O)[C@H](C)NC(=O)[C@@H](NC(=O)[C@H](Cc1ccc(OP(=O)(O)O)cc1)NC(=O)CNC(=O)[C@H](CC(=O)O)NC(=O)[C@@H](NC(=O)[C@@H](N)CCC(=O)O)[C@@H](C)O)C(C)C)C(=O)N[C@H](C(=O)N[C@@H](CS)C(=O)N[C@@H](CO)C(=O)N[C@@H](CC(=O)O)C(=O)O)[C@@H](C)O [ErbB2 pY1127] | 1620 nM | 1620 nM | 1210 nM | 590 nM | 110 nM | 120 nM | 30 nM | 60 nM | 19 nM | 220 nM | 1590 nM | 170 nM | – | – | – | – | – |
| CCN(CC)c1ccc2c(-c3ccc(C(=O)N[C@@H](CC(N)=O)C(=O)NCC(=O)N4CCC[C@H]4C(=O)N4CCC[C@H]4C(=O)N[C@@H](CCCCN)C(=O)N[C@@H](C)C(=O)N[C@@H](CCC(=O)O)C(=O)N[C@@H](CC(=O)O)C(=O)N[C@@H](CCC(=O)O)C(=O)N[C@@H](Cc4ccc(OP(=O)(O)O)cc4)C(=O)N[C@H](C(=O)N[C@@H](CC(N)=O)C(=O)N[C@@H](CCC(=O)O)C(=O)N4CCC[C@H]4C(=O)N[C@@H](CC(C)C)C(=O)N[C@@H](Cc4ccc(O)cc4)C(=O)N[C@@H](CC(C)C)C(=O)N[C@@H](CC(=O)O)C(=O)O)C(C)C)cc3C(=O)[O-])c3ccc(=[N+](CC)CC)cc-3oc2c1 [ErbB4 1202 (18-mer)] (HELM PEPTIDE1{[CCN(CC)c1ccc2c(-c3ccc(C(=O)[*:2])cc3C(=O)[O-])c3ccc(=[N+](CC)CC)cc-3oc2c1].N.G.P.P.K.A.E.D.E.[O=C([C@H](Cc1ccc(OP(=O)(O)O)cc1)N[*:1])[*:2]].V.N.E.P.L.Y.L.D}$$$$V2.0) | – | – | – | – | – | – | 8560 nM | – | – | – | – | – | 660 nM | 170 nM | 540 nM | 9500 nM | – |
| CC[C@H](C)[C@H](NC(=O)[C@H](CC(N)=O)NC(=O)[C@H](CC(N)=O)NC(=O)[C@H](CCCCN)NC(=O)[C@H](CC(C)C)NC(=O)[C@H](Cc1ccc(OP(=O)(O)O)cc1)NC(=O)[C@H](CCC(=O)O)NC(=O)[C@H](C)NC(=O)[C@H](CCCCN)NC(=O)CNC(=O)[C@H](CC(C)C)NC(=O)[C@@H](NC(=O)[C@H](CC(N)=O)NC(=O)[C@H](C)NC(=O)[C@@H](N)Cc1ccccc1)[C@@H](C)O)C(=O)N[C@@H](CC(C)C)C(=O)N[C@@H](CO)C(=O)N[C@@H](CC(=O)O)C(=O)O [ErbB4 pY1221 (18-mer)] (HELM PEPTIDE1{F.A.N.T.L.G.K.A.E.[O=C([C@H](Cc1ccc(OP(=O)(O)O)cc1)N[*:1])[*:2]].L.K.N.N.I.L.S.D}$$$$V2.0) | – | – | – | – | – | – | – | – | – | – | – | – | – | – | – | – | 716010 nM |
